In the NIST ThermoML archive (doi:10.1021/je900537y):
Numbers after ± are expanded uncertainties.

Assay: molar heat capacity at constant pressure
Conditions: 101.33 kPa, Liquid, Small sample (50 mg) DSC

NCCN [ethane-1,2-diamine]
Conditions | molar heat capacity at constant pressure [J/K/mol]
293.15 K | 172.34 ± 2.7
294.65 K | 172.43 ± 2.7
296.15 K | 172.53 ± 2.7
297.65 K | 172.63 ± 2.7
298.15 K | 172.66 ± 2.7
299.15 K | 172.73 ± 2.7
300.65 K | 172.84 ± 2.7
302.15 K | 172.95 ± 2.7
303.65 K | 173.06 ± 2.7
305.15 K | 173.17 ± 2.7
306.65 K | 173.29 ± 2.7
308.15 K | 173.41 ± 2.7
309.65 K | 173.53 ± 2.7
311.15 K | 173.66 ± 2.7
312.65 K | 173.79 ± 2.7
314.15 K | 173.92 ± 2.7
315.65 K | 174.05 ± 2.7
317.15 K | 174.18 ± 2.7
318.65 K | 174.31 ± 2.7
320.15 K | 174.45 ± 2.7
321.65 K | 174.59 ± 2.7
323.15 K | 174.72 ± 2.7
324.65 K | 174.86 ± 2.7
326.15 K | 175 ± 2.7
327.65 K | 175.15 ± 2.7
329.15 K | 175.29 ± 2.7
330.65 K | 175.43 ± 2.7
332.15 K | 175.58 ± 2.7
333.65 K | 175.72 ± 2.7
335.15 K | 175.86 ± 2.7
336.65 K | 176.01 ± 2.7
338.15 K | 176.15 ± 2.7
339.65 K | 176.3 ± 2.7
341.15 K | 176.44 ± 2.7
342.65 K | 176.59 ± 2.7
344.15 K | 176.73 ± 2.7
345.65 K | 176.87 ± 2.7
347.15 K | 177.02 ± 2.7
348.65 K | 177.16 ± 2.7
350.15 K | 177.3 ± 2.8
351.65 K | 177.44 ± 2.8
353.15 K | 177.58 ± 2.8

NCCCCCCCN [1,7-diaminoheptane]
Conditions | molar heat capacity at constant pressure [J/K/mol]
302.15 K | 332.76 ± 5.2
303.65 K | 332.93 ± 5.2
305.15 K | 333.11 ± 5.2
306.65 K | 333.29 ± 5.2
308.15 K | 333.48 ± 5.2
309.65 K | 333.67 ± 5.2
311.15 K | 333.86 ± 5.2
312.65 K | 334.06 ± 5.2
314.15 K | 334.27 ± 5.2
315.65 K | 334.48 ± 5.2
317.15 K | 334.7 ± 5.2
318.65 K | 334.92 ± 5.2
320.15 K | 335.15 ± 5.2
321.65 K | 335.38 ± 5.2
323.15 K | 335.62 ± 5.2
324.65 K | 335.87 ± 5.2
326.15 K | 336.12 ± 5.2
327.65 K | 336.38 ± 5.2
329.15 K | 336.64 ± 5.2
330.65 K | 336.91 ± 5.2
332.15 K | 337.18 ± 5.2
333.65 K | 337.47 ± 5.2
335.15 K | 337.76 ± 5.2
336.65 K | 338.05 ± 5.2
338.15 K | 338.35 ± 5.2
339.65 K | 338.66 ± 5.2
341.15 K | 338.98 ± 5.2
342.65 K | 339.3 ± 5.3
344.15 K | 339.63 ± 5.3
345.65 K | 339.97 ± 5.3
347.15 K | 340.31 ± 5.3
348.65 K | 340.66 ± 5.3
350.15 K | 341.02 ± 5.3
351.65 K | 341.39 ± 5.3
353.15 K | 341.76 ± 5.3

NCCCCCCCCCN [1,9-diaminononane]
Conditions | molar heat capacity at constant pressure [J/K/mol]
311.15 K | 398.93 ± 6.2
312.65 K | 399.04 ± 6.2
314.15 K | 399.17 ± 6.2
315.65 K | 399.32 ± 6.2
317.15 K | 399.47 ± 6.2
318.65 K | 399.64 ± 6.2
320.15 K | 399.82 ± 6.2
321.65 K | 400.02 ± 6.2
323.15 K | 400.22 ± 6.2
324.65 K | 400.44 ± 6.2
326.15 K | 400.67 ± 6.2
327.65 K | 400.92 ± 6.2
329.15 K | 401.17 ± 6.2
330.65 K | 401.44 ± 6.2
332.15 K | 401.72 ± 6.2
333.65 K | 402.02 ± 6.2
335.15 K | 402.32 ± 6.2
336.65 K | 402.64 ± 6.2
338.15 K | 402.97 ± 6.2
339.65 K | 403.32 ± 6.2
341.15 K | 403.67 ± 6.2
342.65 K | 404.04 ± 6.3
344.15 K | 404.43 ± 6.3
345.65 K | 404.82 ± 6.3
347.15 K | 405.23 ± 6.3
348.65 K | 405.65 ± 6.3
350.15 K | 406.08 ± 6.3
351.65 K | 406.52 ± 6.3
353.15 K | 406.98 ± 6.3

NCCCN [1,3-propanediamine]
Conditions | molar heat capacity at constant pressure [J/K/mol]
293.15 K | 203.05 ± 3.1
294.65 K | 203.21 ± 3.1
296.15 K | 203.37 ± 3.1
297.65 K | 203.53 ± 3.1
298.15 K | 203.59 ± 3.1
299.15 K | 203.7 ± 3.2
300.65 K | 203.86 ± 3.2
302.15 K | 204.03 ± 3.2
303.65 K | 204.19 ± 3.2
305.15 K | 204.36 ± 3.2
306.65 K | 204.53 ± 3.2
308.15 K | 204.7 ± 3.2
309.65 K | 204.87 ± 3.2
311.15 K | 205.04 ± 3.2
312.65 K | 205.21 ± 3.2
314.15 K | 205.38 ± 3.2
315.65 K | 205.56 ± 3.2
317.15 K | 205.73 ± 3.2
318.65 K | 205.91 ± 3.2
320.15 K | 206.08 ± 3.2
321.65 K | 206.26 ± 3.2
323.15 K | 206.43 ± 3.2
324.65 K | 206.61 ± 3.2
326.15 K | 206.79 ± 3.2
327.65 K | 206.96 ± 3.2
329.15 K | 207.14 ± 3.2
330.65 K | 207.32 ± 3.2
332.15 K | 207.5 ± 3.2
333.65 K | 207.67 ± 3.2
335.15 K | 207.85 ± 3.2
336.65 K | 208.03 ± 3.2
338.15 K | 208.2 ± 3.2
339.65 K | 208.38 ± 3.2
341.15 K | 208.56 ± 3.2
342.65 K | 208.73 ± 3.2
344.15 K | 208.91 ± 3.2
345.65 K | 209.08 ± 3.2
347.15 K | 209.26 ± 3.2
348.65 K | 209.43 ± 3.2
350.15 K | 209.6 ± 3.2
351.65 K | 209.78 ± 3.2
353.15 K | 209.95 ± 3.2

NCCCCN [1,4-butanediamine]
Conditions | molar heat capacity at constant pressure [J/K/mol]
298.15 K | 236.33 ± 3.7
299.15 K | 236.45 ± 3.7
300.65 K | 236.61 ± 3.7
302.15 K | 236.77 ± 3.7
303.65 K | 236.94 ± 3.7
305.15 K | 237.09 ± 3.7
306.65 K | 237.25 ± 3.7
308.15 K | 237.41 ± 3.7
309.65 K | 237.56 ± 3.7
311.15 K | 237.72 ± 3.7
312.65 K | 237.87 ± 3.7
314.15 K | 238.03 ± 3.7
315.65 K | 238.18 ± 3.7
317.15 K | 238.34 ± 3.7
318.65 K | 238.49 ± 3.7
320.15 K | 238.65 ± 3.7
321.65 K | 238.81 ± 3.7
323.15 K | 238.97 ± 3.7
324.65 K | 239.13 ± 3.7
326.15 K | 239.29 ± 3.7
327.65 K | 239.46 ± 3.7
329.15 K | 239.63 ± 3.7
330.65 K | 239.8 ± 3.7
332.15 K | 239.98 ± 3.7
333.65 K | 240.15 ± 3.7
335.15 K | 240.34 ± 3.7
336.65 K | 240.52 ± 3.7
338.15 K | 240.71 ± 3.7
339.65 K | 240.91 ± 3.7
341.15 K | 241.11 ± 3.7
342.65 K | 241.32 ± 3.7
344.15 K | 241.53 ± 3.7
345.65 K | 241.74 ± 3.8
347.15 K | 241.97 ± 3.8
348.65 K | 242.2 ± 3.8
350.15 K | 242.43 ± 3.8
351.65 K | 242.68 ± 3.8
353.15 K | 242.93 ± 3.8

NCCCCCCN [1,6-hexanediamine]
Conditions | molar heat capacity at constant pressure [J/K/mol]
314.15 K | 301.08 ± 4.7
315.65 K | 301.25 ± 4.7
317.15 K | 301.42 ± 4.7
318.65 K | 301.59 ± 4.7
320.15 K | 301.77 ± 4.7
321.65 K | 301.95 ± 4.7
323.15 K | 302.14 ± 4.7
324.65 K | 302.33 ± 4.7
326.15 K | 302.53 ± 4.7
327.65 K | 302.74 ± 4.7
329.15 K | 302.95 ± 4.7
330.65 K | 303.17 ± 4.7
332.15 K | 303.4 ± 4.7
333.65 K | 303.64 ± 4.7
335.15 K | 303.88 ± 4.7
336.65 K | 304.13 ± 4.7
338.15 K | 304.4 ± 4.7
339.65 K | 304.67 ± 4.7
341.15 K | 304.95 ± 4.7
342.65 K | 305.25 ± 4.7
344.15 K | 305.55 ± 4.7
345.65 K | 305.87 ± 4.7
347.15 K | 306.2 ± 4.7
348.65 K | 306.54 ± 4.8
350.15 K | 306.89 ± 4.8
351.65 K | 307.26 ± 4.8
353.15 K | 307.64 ± 4.8
